# Data from PubChem BioAssay (NCI).
#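 At the GI50, growth is halved. The concentration for full growth arrest is given as TGI.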
# Columns and labels:
# Test in all cases: DTP human tumour cell line panel, 384-well format
# [1] = system: OVCAR-8 ovarian
# [2] = system: UO-31 renal
# [3] = system: NCI/ADR-RES ovarian
# [4] = system: KM12 colon
# [5] = system: BT-549 breast
# [6] = system: DU-145 prostate
# [7] = system: NCI-H522 lung
# [8] = system: SNB-19 CNS
# [9] = system: HS 578T breast
# [10] = system: SK-MEL-5 melanoma
# [11] = system: MALME-3M melanoma
# [12] = system: HCC-2998 colon
# [13] = system: OVCAR-5 ovarian
# [14] = system: MOLT-4 leukemia
# [15] = system: COLO 205 colon
# [16] = system: SNB-75 CNS
# [17] = system: CCRF-CEM leukemia
# [18] = system: MDA-MB-231 breast
# [19] = system: NCI-H23 lung
# [20] = system: A549 NSCLC
# [21] = system: T-47D breast
# [22] = system: IGROV1 ovarian
# [23] = system: SF-295 CNS
# [24] = system: TK-10 renal
# [25] = system: SN12C renal
# [26] = system: MDA-MB-468 breast
# [27] = system: HL-60(TB) leukemia
# [28] = system: SW-620 colon
# [29] = system: ACHN renal
# [30] = system: NCI-H226 lung
# [31] = system: HCT-15 colon
# [32] = system: HCT-116 colon
# [33] = system: SF-539 CNS
# [34] = system: EKVX NSCLC
# [35] = system: OVCAR-3 ovarian
# [36] = system: NCI-H322M lung
# [37] = system: 786-0 renal
# [38] = system: K-562 leukemia
# [39] = system: RXF 393 renal
# [40] = system: M14 melanoma
# [41] = system: HT29 colon
# [42] = system: CAKI-1 renal
# [43] = system: MCF7 breast
# [44] = system: A498 renal
# [45] = system: PC-3 prostate
# [46] = system: SF-268 CNS
# [47] = system: SK-MEL-2 melanoma
# [48] = system: NCI-H460 NSCLC
# [49] = system: SK-OV-3 ovarian
# [50] = system: RPMI-8226 leukemia
# [51] = system: U251 glioblastoma
# [52] = system: MDA-MB-435 melanoma
# [53] = system: SK-MEL-28 melanoma
# [54] = system: UACC-62 melanoma
# [55] = system: LOX IMVI melanoma
# [56] = system: HOP-92 NSCLC
# [57] = system: HOP-62 NSCLC
# [58] = system: OVCAR-4 ovarian
smiles,measurement,setting,value
Cn1nccc1Nc1nccc(-c2cc3c(s2)C(C)(C)N(CCN2CCOCC2)C3=O)n1,GI50,[1],34.8 µM
same,TGI,[1],> 100 µM
same,GI50,[2],9.2 µM
same,TGI,[2],> 100 µM
same,GI50,[3],> 100 µM
same,TGI,[3],> 100 µM
same,GI50,[4],1.69 µM
same,TGI,[4],> 100 µM
same,GI50,[5],13.8 µM
same,TGI,[5],> 100 µM
same,GI50,[6],23.6 µM
same,TGI,[6],> 100 µM
same,GI50,[7],1.65 µM
same,TGI,[7],20.8 µM
same,GI50,[8],64.7 µM
same,TGI,[8],> 100 µM
same,GI50,[9],49.4 µM
same,TGI,[9],> 100 µM
same,GI50,[10],0.619 µM
same,TGI,[10],> 100 µM
same,GI50,[11],0.0557 µM
same,TGI,[11],0.296 µM
same,GI50,[12],0.308 µM
same,TGI,[12],17.1 µM
same,GI50,[13],0.989 µM
same,TGI,[13],> 100 µM
same,GI50,[14],46 µM
same,TGI,[14],> 100 µM
same,GI50,[15],0.194 µM
same,TGI,[15],5.35 µM
same,GI50,[16],> 100 µM
same,TGI,[16],> 100 µM
same,GI50,[17],34.2 µM
same,TGI,[17],> 100 µM
same,GI50,[18],3.5 µM
same,TGI,[18],> 100 µM
same,GI50,[19],0.301 µM
same,TGI,[19],9.1 µM
same,GI50,[20],2.45 µM
same,TGI,[20],> 100 µM
same,GI50,[21],> 100 µM
same,TGI,[21],> 100 µM
same,GI50,[22],3.52 µM
same,TGI,[22],> 100 µM
same,GI50,[23],> 100 µM
same,TGI,[23],> 100 µM
same,GI50,[24],3.46 µM
same,TGI,[24],> 100 µM
same,GI50,[25],39.2 µM
same,TGI,[25],> 100 µM
same,GI50,[26],19.3 µM
same,TGI,[26],89 µM
same,GI50,[27],0.264 µM
same,TGI,[27],10.1 µM
same,GI50,[28],0.756 µM
same,TGI,[28],> 100 µM
same,GI50,[29],16.9 µM
same,TGI,[29],> 100 µM
same,GI50,[30],14.2 µM
same,TGI,[30],> 100 µM
same,GI50,[31],23.1 µM
same,TGI,[31],> 100 µM
same,GI50,[32],0.404 µM
same,TGI,[32],> 100 µM
same,GI50,[33],28.2 µM
same,TGI,[33],> 100 µM
same,GI50,[34],> 100 µM
same,TGI,[34],> 100 µM
same,GI50,[35],51.4 µM
same,TGI,[35],> 100 µM
same,GI50,[36],7.59 µM
same,TGI,[36],> 100 µM
same,GI50,[37],90.9 µM
same,TGI,[37],> 100 µM
same,GI50,[38],4.74 µM
same,TGI,[38],> 100 µM
same,GI50,[39],> 100 µM
same,TGI,[39],> 100 µM
same,GI50,[40],0.157 µM
same,TGI,[40],0.905 µM
same,GI50,[41],0.618 µM
same,TGI,[41],> 100 µM
same,GI50,[42],3.31 µM
same,TGI,[42],> 100 µM
same,GI50,[43],21.2 µM
same,TGI,[43],> 100 µM
same,GI50,[44],5.15 µM
same,TGI,[44],> 100 µM
same,GI50,[45],55.4 µM
same,TGI,[45],> 100 µM
same,GI50,[46],50.9 µM
same,TGI,[46],> 100 µM
same,GI50,[47],0.372 µM
same,TGI,[47],1.45 µM
same,GI50,[48],4.26 µM
same,TGI,[48],> 100 µM
same,GI50,[49],25.2 µM
same,TGI,[49],> 100 µM
same,GI50,[50],2.23 µM
same,TGI,[50],8.87 µM
same,GI50,[51],25.9 µM
same,TGI,[51],> 100 µM
same,GI50,[52],0.402 µM
same,TGI,[52],50.9 µM
same,GI50,[53],0.177 µM
same,TGI,[53],0.797 µM
same,GI50,[54],0.138 µM
same,TGI,[54],1.76 µM
same,GI50,[55],0.345 µM
same,TGI,[55],1.55 µM
same,GI50,[56],4.27 µM
same,TGI,[56],> 100 µM
same,GI50,[57],8.17 µM
same,TGI,[57],> 100 µM
same,GI50,[58],> 100 µM
same,TGI,[58],> 100 µM
